Columns and labels:
[1] = Stability properties (chemical, physical, pH, light); type: physicochemical
[2] = Half-life (hydrolysis); type: physicochemical; conditions: T = 120° C.
[3] = test system: LDH; assay: Stabilization when freezing protein solutions (LDH); type: biochemical
[4] = test system: enzymes; assay: Protection against thermally induced denaturation of enzymes; type: biochemical; conditions: in comparison with a number of other compatible solutes far and decidedly better
[5] = Solubility in water; type: physicochemical

O=C(O)[C@H]1COP(=O)(O)OP(=O)(O)O1 [Cyclic diphosphoglycerate, cyclic diphosphoglycerate]
chemical and physical stability [1]: High | half-life [2]: 150 h | stabilizing properties when freezing protein solutions (LDH) [3]: good stabilizing properties | protective effect in respect of the thermally induced denaturation of enzymes [4]: excellent | solubility in water [5]: Excellent

Source: patent US20040097543A1, “Use of cyclic 2,4-diphosphoclycerates (cdgp) and/or derivatives thereof in cosmetic and dermatological formulations” (priority 2000, published 2004)
